These results are taken from patent US11236106B2, “Cycloalkane-1,3-diamine derivative” (Daiichi Sankyo Company, Limited, priority 2018, dated 2022).

Counter-ions that a name gives are not always drawn.

The first experiment addresses T1, menin and MLL (menin, Flag tagged; biotinylated MLL1 peptide 1-46aa) (Homo sapiens, UniProt O00255).
T1 sequence (O00255 1-610): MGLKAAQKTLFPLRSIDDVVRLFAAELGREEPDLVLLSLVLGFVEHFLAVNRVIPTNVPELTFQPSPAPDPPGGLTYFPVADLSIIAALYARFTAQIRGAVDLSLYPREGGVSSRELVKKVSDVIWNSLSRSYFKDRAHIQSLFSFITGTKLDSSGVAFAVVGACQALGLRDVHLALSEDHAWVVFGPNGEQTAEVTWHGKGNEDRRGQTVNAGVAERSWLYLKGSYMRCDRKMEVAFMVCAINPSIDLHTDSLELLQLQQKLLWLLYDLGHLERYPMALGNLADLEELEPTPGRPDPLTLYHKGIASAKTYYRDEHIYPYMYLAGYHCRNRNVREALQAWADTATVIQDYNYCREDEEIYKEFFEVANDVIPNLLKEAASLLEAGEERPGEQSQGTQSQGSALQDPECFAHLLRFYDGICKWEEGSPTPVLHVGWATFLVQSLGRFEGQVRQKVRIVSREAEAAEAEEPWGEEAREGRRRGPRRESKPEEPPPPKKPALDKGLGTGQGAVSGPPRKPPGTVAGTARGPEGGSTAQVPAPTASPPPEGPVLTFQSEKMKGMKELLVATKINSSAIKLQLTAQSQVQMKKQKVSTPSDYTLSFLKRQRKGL
The experiment in a line: biochemical.
Conditions: not given
In general, IC50 refers to the concentration that gives 50% inhibition. Low values mean greater potency, high ones weaker potency. The compound `COc1nc(N(C)[C@H]2C[C@@H](NCC3CC=C(c4cc(OC)c(OC)nn4)CC3)C[C@H]2O)c2cc(CC(F)(F)F)sc2n1` (mixture of isomers) [Example 125, (1R,2S,4R)-4-({[4-(5,6-dimethoxypyridazin-3-yl)cyclohex-3-en-1-yl]methyl}amino)-2-{[2-methoxy-6-(2,2,2-trifluoroethyl)thieno[2,3-d]pyrimidin-4-yl](methyl)amino}cyclopentan-1-ol hydrochloride] showed an IC50 of 1.5 nM.
The same measure, in the same setting: the result for `COc1cc(-c2ccc(CN[C@H]3C[C@@H](O)[C@@H](N(C)c4ncnc5sc(CC(F)(F)F)cc45)C3)cc2)nnc1N1CCC1` [Example 105, (1R,2S,4R)-4-[({4-[6-(azetidin-1-yl)-5-methoxypyridazin-3-yl]phenyl}methyl)amino]-2-{methyl[6-(2,2,2-trifluoroethyl)thieno[2,3-d]pyrimidin-4-yl]amino}cyclopentan-1-ol hydrochloride] reads 8 nM.

The experiment is the same for the next values; noted with them: IC50, binding inhibitory activity between menin and MLL, AlphaLISA; 1 nM menin, 10 nM biotinylated MLL1 peptide.
For `COc1cc(-c2ccc(CN[C@H]3C[C@@H](O)[C@@H](N(C)c4ncnc5sc(CC(F)(F)F)cc45)C3)cc2)nnc1Oc1cccnc1` [Example 107, (1R,2S,4R)-4-{[(4-{5-methoxy-6-[(pyridin-3-yl)oxy]pyridazin-3-yl}phenyl)methyl]amino}-2-{methyl[6-(2,2,2-trifluoroethyl)thieno[2,3-d]pyrimidin-4-yl]amino}cyclopentan-1-ol hydrochloride], the IC50 was 1.3 nM.
For `C=CC(=O)N(C)c1nnc(-c2ccc(CN[C@H]3C[C@@H](O)[C@@H](N(C)c4nc(OC)nc5sc(CC(F)(F)F)cc45)C3)cc2)cc1OC` [Example 113, N-{6-[4-({[(1R,3R,4S)-3-hydroxy-4-{[2-methoxy-6(2,2,2-trifluoroethyl)thieno[2,3-d]pyrimidin-4-yl](methyl)amino}cyclopentyl]amino}methyl)phenyl]-4-methoxypyridazin-3-yl}-N-methylprop-2-enamide hydrochloride], the half-maximal inhibitory concentration (IC50) stood at 29.2 nM.
Same read-out and setting: the result for `COc1cc(-c2ccc(CN[C@H]3CC[C@H](OC)[C@@H](Nc4ncnc5sc(CC(F)(F)F)cc45)C3)cc2)nnc1OC` [Example 126, (1S,3S,4S)—N^1-{[4-(5,6-dimethoxypyridazin-3-yl)phenyl]methyl}-4-methoxy-N^3-[6-(2,2,2-trifluoroethyl)thieno[2,3-d]pyrimidin-4-yl]cyclohexane-1,3-diamine Hydrochloride] reads 7.5 nM; that for `CN(c1ncnc2sc(CC(F)(F)F)cc12)[C@H]1C[C@@H](NCc2ccc(-c3cccc(N(C)S(C)(=O)=O)c3)cc2)C[C@H]1O` [Example 71, N-[4′-({[(1R,3R,4S)-3-hydroxy-4-{methyl[6-(2,2,2-trifluoroethyl)thieno[2,3-d]pyrimidin-4-yl]amino}cyclopentyl]amino}methyl)[1,1′-biphenyl]-3-yl]-N-methylmethanesulfonamide hydrochloride], 0.6 nM; that for `CNc1nc(N(C)[C@H]2C[C@@H](NCc3ccc(-c4cc(F)c(F)c(OC)c4)cc3)C[C@H]2O)c2cc(CC(F)(F)F)sc2n1` [Example 82, (1R,2S,4R)-4-{[(3′,4′-difluoro-5′-methoxy[1,1′-biphenyl]-4-yl)methyl]amino}-2-{methyl[2-(methylamino)-6-(2,2,2-trifluoroethyl)thieno[2,3-d]pyrimidin-4-yl]amino}cyclopentan-1-ol hydrochloride], 22.8 nM.
Still for that read-out and setting: the same measure for `COc1ncc(-c2ccc(CN[C@H]3CC[C@@H](N(C)c4ncnc5sc(CC(F)(F)F)cc45)C3)cc2)s1` [Example 130, (1R,3S)—N^3-{[4-(2-methoxy-1,3-thiazol-5-yl)phenyl]methyl}-N^1-methyl-N^1-[6-(2,2,2-trifluoroethyl)thieno[2,3-d]pyrimidin-4-yl]cyclopentane-1,3-diamine Hydrochloride]: 6.5 nM; for `CNc1nc(N(C)[C@H]2C[C@@H](NCc3ccc(-c4cc(F)cc(OC)c4)cc3)C[C@H]2O)c2cc(CC(F)(F)F)sc2n1` [Example 75, (1R,2S,4R)-4-{[(3′-fluoro-5′-methoxy[1,1′-biphenyl]-4-yl)methyl}amino}-2-{methyl[2-(methylamino)-6-(2,2,2-trifluoroethyl)thieno[2,3-d]pyrimidin-4-yl]amino}cyclopentan-1ol hydrochloride]: 17.2 nM.

The same experiment, now with this note: cell free IC50 (nM), 1 nM menin, 10 nM biotinylated MLL1 peptide, AlphaLISA.
`COc1cncc(-c2ccc(CN(C)[C@@H]3C[C@H](O)C[C@H](Nc4ncnc5sc(CC(F)(F)F)cc45)C3)cc2)c1` [Example 16, (1R,3S,5R)-3-[{[4-(5-methoxypyridin-3-yl)phenyl]methyl}(methyl)amino]-5-{[6-(2,2,2-trifluoroethyl)thieno[2,3-d]pyrimidin-4-yl]amino}cyclohexan-1-ol] registered an IC50 of 1870 nM.
Still for that read-out and setting: the same measure for `CNc1nc(N(C)[C@H]2C[C@@H](NCc3ccc(Nc4cccnc4)cc3)C[C@@H]2O)c2cc(CC(F)(F)F)sc2n1` [Example 54, (1S,2S,4R)-2-{methyl[2-(methylamino)-6-(2,2,2-trifluoroethyl)thieno[2,3-d]pyrimidin-4-yl]amino}-4-[({4-[(pyridin-3-yl)amino]phenyl}methyl)amino]cyclopentan-1-ol hydrochloride]: 1 nM.
On to `CN(c1ncnc2sc(CC(F)(F)F)cc12)[C@@H]1CC[C@H](NCc2ccc(-c3ccc(-c4ccc(Cl)nc4)nc3)cc2)C1` [Example 13, (1R,3S)—N^3-{[4-(6′-chloro[2,3′-bipyridine]-5-yl)phenyl]methyl}-N^1-methyl-N^1-[6-(2,2,2-trifluoroethyl)thieno[2,3-d]pyrimidin-4-yl]cyclopentane-1,3-diamine], for which the half-inhibitory concentration (IC50) amounted to 7.6 nM.
The compound `Cc1c(CN[C@H]2CC[C@@H](N(C)c3ncnc4sc(CC(F)(F)F)cc34)C2)ccc2c1cc(C#N)n2Cc1cn[nH]c1` [Example 2, 4-methyl-5-({[(1S,3R)-3-{methyl[6-(2,2,2-trifluoroethyl)thieno[2,3-d]pyrimidin-4-yl]amino}cyclopentyl]amino}methyl)-1-[(1H-pyrazol-4-yl)methyl]-1H-indole-2-carbonitrile Hydrochloride] showed an IC50 of 12.8 nM.
Consider `CN(c1ncnc2ccc(CC(F)(F)F)cc12)[C@@H]1CC[C@H](NCc2ccc(O)cc2)C1` [Example 5, 4-({[(1S,3R)-3-{methyl[6-(2,2,2-trifluoroethyl)quinazolin-4-yl]amino}cyclopentyl]amino}methyl)phenol Hydrochloride], for which it took 856 nM to reach half-maximal inhibition (IC50).
The compound `COc1cncc(-c2ccc(CN[C@H]3CC[C@@H](N(C)c4nc(C)nc5sc(CC(F)(F)F)cc45)C3)cn2)c1` [Example 46, (1R,3S)-N^3-[(5′-methoxy[2,3′-bipyridine]-5-yl)methyl]-N^1-methyl-N^1-[2-methyl-6-(2,2,2-trifluoroethyl)thieno[2,3-d]pyrimidin-4-yl]cyclopentane-1,3-diamine hydrochloride] displayed an IC50 of 39.4 nM.
Still for that read-out and setting: the result for `COc1cncc(-c2ccc(CN[C@H]3CC[C@@H](N(C)c4ncnc5sc(C6CC6)cc45)C3)cc2)c1` [Example 45, (1R,3S)-N^1-(6-cyclopropylthieno[2,3-d]pyrimidin-4-yl)-N^3-{[4-(5-methoxypyridin-3-yl)phenyl]methyl}-N^1-methylcyclopentane-1,3-diamine hydrochloride] reads 33.3 nM.
For `COc1cncc(-c2ccc(CN[C@@H]3C[C@H](O)C[C@H](Nc4ncnc5sc(CC(F)(F)F)cc45)C3)cc2)c1` (single isomer, unassigned) [Example 15B, Hydrochloride], the half-maximal inhibitory concentration (IC50) stood at 403 nM.
